{"source": "patent US20190374506A1", "about": "“COMPOSITIONS AND METHODS FOR TREATING CANCER” (BETH ISREAL DEACONESS MEDICAL CENTER, priority 2016, published 2019)", "key": {"[1]": {"test_system": "PTEN/AKT pathway in DU145 cells (PTEN competent)", "assay": "Western blot analysis of PTEN/AKT pathway in DU145 cells", "assay_type": "cell-based, human", "details": "different doses of I3C for 3 Days", "experimental": "(§1) FIG. 11B provides an analysis of effects of I3C on PTEN/AKT pathway in DU145 or PC3 cells by western blot analysis. Cells were treated with different doses of I3C for 3 Days, and followed by western blot analysis. Whether targeting WWP1/NEDD4-1, thereby enhancing PTEN dimerization and function, could offer a unique opportunity to treat MYC-driven cancers was investigated. […] As there is no small pharmacological inhibitor currently available to suppress/inhibit WWP1 activity, Indole-3-Carbinol (I3C), a potential WWP1 inhibitor, which suppresses the WWP1 activity through binding to its HECT domain, was used. First, to assess the on-target effects of I3C towards WWP1, Wwp1^−/− MEFs were used. […] Additionally, two independent PTEN stably knocked-down cells were generated. […] Western Blotting and Immunoprecipitation. For western blotting, cells were lysed in RIPA buffer (Boston BioProducts) supplemented with protease (Roche) and phosphatase (Roche) inhibitor. Proteins were separated on NuPAGE 4-12% Bis-Tris gradient gels (Invitrogen), transferred to polyvinylidine difluoride membranes (Immobilon P, Millipore) and the blots were probed with the indicated antibodies. For immunoprecipitation, PC3, 293T and MEF cells were transfected with the indicated expression vectors by using LIPOFECTAMIN 2000 (Life Technologies). 24 hours after transfection, cells were lysed in RIPA buffer with protease (Roche) and phosphatase (Roche) inhibitor. 500 μg of total lysates were pre-cleared for 30 minutes at 4° C., and then immunoprecipitated with anti-Myc (Cell Signaling Technology 9B11, 1:500), or anti-PTEN (Cell Signaling Technology 9559, 1:500) antibody overnight at 4° C. The Protein-A or Protein-G sepharose beads (GE Healthcare) were then added and incubated for another 2 hours. The immunoprecipitates were washed with RIPA buffer three times. In denaturing conditions, standard Laemmli-Buffer with 5% final concentration of β-mercaptoethanol was added to the samples, which were then boiled and separated on NuPAGE 4-12% Bis-Tris gradient gels (Invitrogen). […]"}, "[2]": {"test_system": "PTEN/AKT pathway in PC3 cells (PTEN-null)", "assay": "Western blot analysis of PTEN/AKT pathway in PC3 cells", "assay_type": "cell-based, human", "details": "different doses of I3C for 3 Days", "experimental": "as §1, with “Technologies).” for “Technologies). 24 hours after transfection, cells were lysed in RIPA buffer with protease (Roche) and phosphatase (Roche) inhibitor. 500 μg of total lysates were pre-cleared for 30 minutes at 4° C., and then immunoprecipitated with anti-Myc (Cell Signaling Technology 9B11, 1:500), or anti-PTEN (Cell Signaling Technology 9559, 1:500) antibody overnight at 4° C. The Protein-A or Protein-G sepharose beads (GE Healthcare) were then added and incubated for another 2 hours. The immunoprecipitates were washed with RIPA buffer three times. In denaturing conditions, standard Laemmli-Buffer with 5% final concentration of β-mercaptoethanol was added to the samples, which were then boiled and separated on NuPAGE 4-12% Bis-Tris gradient gels (Invitrogen).”"}, "[3]": {"test_system": "DU145 cells with PTEN depletion", "assay": "Growth curves, MTT assay, DU145 cells with stable PTEN shRNA knockdown", "assay_type": "cell-based, human", "details": "two independent PTEN shRNAs, various doses of I3C for 5 Days", "source_text": "FIG. 11D provides growth curves of DU145 cells, stably expressing vector control or two independent shRNAs, treated with various doses of I3C for 5 Days, and then assayed with colorimetric MTT assay (three experiments). Whether targeting WWP1/NEDD4-1, thereby enhancing PTEN dimerization and function, could offer a unique opportunity to treat MYC-driven cancers was investigated. […] As there is no small pharmacological inhibitor currently available to suppress/inhibit WWP1 activity, Indole-3-Carbinol (I3C), a potential WWP1 inhibitor, which suppresses the WWP1 activity through binding to its HECT domain, was used. First, to assess the on-target effects of I3C towards WWP1, Wwp1^−/− MEFs were used. […] Additionally, two independent PTEN stably knocked-down cells were generated."}, "[4]": {"test_system": "AKT activation in prostate spheres", "assay": "Western blot analysis of prostate spheres at P1 passage", "assay_type": "cell-based, mouse", "details": "20 μM I3C for 3 Days (low dose)", "experimental": "FIG. 11G is a Western blot analysis of prostate spheres at P1 passage treated with 20 μM I3C for 3 Days."}, "[5]": {"test_system": "Hi-Myc mouse prostates", "assay": "Preclinical study of I3C in Hi-Myc mice (prostate cancer)", "assay_type": "in vivo", "experimental": "FIGS. 12A and 12B show hematoxylin and eosin (H&E) staining of mouse prostate and gross anatomy of representative Hi-Myc urogenital tract. Quantification of percentage of normal epithelium in Hi-Myc mice treated with vehicle or I3C at 6 months as shown in (A) (right). The mice at 5 months of age were treated I.P. with I3C (20 mg/kg), three times a week for 1 month starting on day zero. (n=4 per genotype) scale bar, […].\nFIG. 12C provides a Western blot analysis of dorsal lateral prostate (DLP) lysates from Hi-Myc mice as in (A).\nThe boxed areas are enlarged three fold to show the subcellular localization of PTEN on the right. Arrow indicates the PTEN plasma membrane localization. Bar, 50 μm.\nTo examine the functional relevance of the WWP1/NEDD4-1/PTEN crosstalk in vivo, preclinical studies with I3C in Hi-Myc mice were performed. The expression of Hi-Myc in mouse prostate results in complete penetrance of prostatic intraepithelial neoplasia (PIN) and progresses into invasive adenocarcinoma within 5 to 12 months of age. To this end, cohorts of Hi-Myc mice at 5 months of age were treated with either the vehicle or I3C for one month.\nThe Beth Israel Deaconess Medical Center IACUC Committee on Animal Research approved all animal experiments. The transgenic mice used in these studies (Hi-Myc-mice), in which the prostate specific expression of human c-Myc is driven by the rat probasin promoter with two androgen response elements, were obtained from the Mouse Repository of National Cancer Institute. 9 mice per genotype were randomly chosen and used to examine the tumour at the indicated age. Wwp1−/−mice and its paired Wwp1+/+ mice (on a C57/BL6 background) were obtained from Dr. L. Matesic (University of South Carolina, Columbia, SC, USA) (Shu et al., 2013). The pathologist determined the histological grade blindly.\nThe mice were treated I.P. with I3C dissolved in 5% DMSO (20 mg/kg), three times a week for […] starting on day zero. I.P. administration allows I3C to achieve maximal systemic exposure."}, "[6]": {"target": "NEDD4-1", "details": "previous study (Aronchik et al., 2014); read-out: calculated equilibrium dissociation constant (Kd) with NEDD4-1; cited from earlier work"}, "[7]": {"details": "literature statement; cited from earlier work"}, "[8]": {"details": "Hi-Myc mice, I3C 20 mg/kg I.P., western blot"}}}
{"smiles": "OCc1c[nH]c2ccccc12", "note": "[I3C, indole-3-carbinol]", "values": [{"measurement": "AKT activation", "setting": "[1]", "value": "dose-dependent AKT suppression"}, {"measurement": "PTEN protein level", "setting": "[1]", "value": "without affecting PTEN protein level"}, {"measurement": "apoptosis", "setting": "[1]", "value": "concomitant induction of apoptosis"}, {"measurement": "effects on AKT suppression and apoptosis", "setting": "[2]", "value": "only negligible effects"}, {"measurement": "sensitivity of cells with PTEN depletion compared to control cells", "setting": "[3]", "value": "exhibited resistance"}, {"measurement": "AKT activation driven by MYC expression", "setting": "[4]; Hi-Myc prostate spheres", "value": "abolished AKT activation"}, {"measurement": "apoptosis in Hi-Myc prostate spheres", "setting": "[4]; Hi-Myc prostate spheres", "value": "concomitant apoptosis"}, {"measurement": "AKT activation and apoptosis in WT prostate spheres", "setting": "[4]; WT prostate spheres", "value": "not in WT prostate spheres"}, {"measurement": "tumor size, DLP and AP", "setting": "[5]; Hi-Myc mice 5 months of age, I3C 20 mg/kg I.P. three times a week for 1 month, dorsal lateral and anterior prostate", "value": "significantly reduced tumor size"}, {"measurement": "tumor size, VP", "setting": "[5]; Hi-Myc mice, I3C 20 mg/kg I.P. three times a week for 1 month, ventral prostate", "value": "less prominently"}, {"measurement": "PTEN plasma membrane localization in prostate epithelial cells (IHC, DLP tissue)", "setting": "[5]; Hi-Myc mice, I3C 20 mg/kg I.P., compared to vehicle", "value": "induced intense PTEN plasma membrane accumulation"}, {"measurement": "histology of APs", "setting": "[5]; Hi-Myc mice, I3C 20 mg/kg I.P., anterior prostate, H&E", "value": "completely disease-free"}, {"measurement": "histology of DLPs: penetrance of invasive carcinoma", "setting": "[5]; Hi-Myc mice, I3C 20 mg/kg I.P., dorsal lateral prostate, H&E", "value": "significantly lower penetrance"}, {"measurement": "AKT activation in prostate lysates, AP and DLP", "setting": "[5]; [8]", "value": "robustly inhibited AKT activation"}, {"measurement": "PTEN protein level in prostate lysates", "setting": "[5]; [8]", "value": "without affecting PTEN protein level"}, {"measurement": "Kd", "setting": "[6]", "value": "~88.1", "unit": "µM"}, {"measurement": "toxicity", "setting": "[7]", "value": "negligible toxicity"}]}
